Experimental data as given in article PMC9237828, “Chemically Tuning Resveratrol for the Effective Killing of Gram-Positive Pathogens” (Journal of Natural Products, 2022).
In brackets after ≈: the same amount, converted by molar mass. Where two headings read alike, the source gives them in different places. Non-standard residues stand in square brackets, D forms with d. Residues, ends and D or L forms follow the SMILES beside them. Orn = NCCC[C@H](N)C(=O)O

Tests used:
B. cereus ATCC10987 [1] = assay: microbe, parasite or virus in culture; format: cell-based, Bacillus cereus; settings: Bacillus cereus, ATCC10987, 20 h, read-out: Minimal Inhibition Concentration (MIC) B. cereus ATCC10987
B. cereus ATCC14579 = assay: microbe, parasite or virus in culture; format: cell-based, Bacillus cereus; settings: Bacillus cereus, ATCC14579, 20 h, read-out: Minimal Inhibition Concentration (MIC) B. cereus ATCC14579
E. faecalis LMG08222 = assay: microbe, parasite or virus in culture; format: cell-based, Enterococcus faecalis; settings: Enterococcus faecalis, LMG08222, 20 h, read-out: Minimal Inhibition Concentration (MIC) E. faecalis LMG08222
E. faecalis LMG16216 = assay: microbe, parasite or virus in culture; format: cell-based, Enterococcus faecalis; settings: Enterococcus faecalis, LMG16216, 20 h, read-out: Minimal Inhibition Concentration (MIC) E. faecalis LMG16216
E. faecalis V583 = assay: microbe, parasite or virus in culture; format: cell-based, Enterococcus faecalis; settings: Enterococcus faecalis, V583, 20 h, read-out: Minimal Inhibition Concentration (MIC) E. faecalis V583
E. faecium LMG11423 = assay: microbe, parasite or virus in culture; format: cell-based; settings: Enterococcus faecium, LMG11423, 20 h, read-out: Minimal Inhibition Concentration (MIC) E. faecium LMG11423
E. faecium LMG16003 = assay: microbe, parasite or virus in culture; format: cell-based; settings: Enterococcus faecium, LMG16003, 20 h, read-out: Minimal Inhibition Concentration (MIC) E. faecium LMG16003
S.aureus LMG8224 = assay: microbe, parasite or virus in culture; format: cell-based, Staphylococcus aureus; settings: Staphylococcus aureus, LMG8224, 20 h, read-out: Minimal Inhibition Concentration (MIC) S.aureus LMG8224
S.aureus LMG10147 = assay: microbe, parasite or virus in culture; format: cell-based, Staphylococcus aureus; settings: Staphylococcus aureus, LMG10147, 20 h, read-out: Minimal Inhibition Concentration (MIC) S.aureus LMG10147
S.aureus LMG15975 = assay: microbe, parasite or virus in culture; format: cell-based, Staphylococcus aureus; settings: Staphylococcus aureus, LMG15975, 20 h, read-out: Minimal Inhibition Concentration (MIC) S.aureus LMG15975
C. beijerinckii B504 = assay: MIC test, anaerobes; format: cell-based
Description: (§1) The resveratrol derivatives were serially diluted in cMHB (BD Difco) in 96-well microplates. Plates were then inoculated with the indicator bacteria at a final concentration of 5 × 10^5 CFU/mL and incubated at 37 °C for 20 h. In the case of the anaerobic bacteria (Clostridium and Clostridioides), the test was performed following the recommendation of CLSI for anaerobes[77] but using RCM medium instead of cMHB. The cultures were cultivated inside an anaerobic chamber at 37 °C for 24 h. All the tests were performed in triplicate.

C. ihumii AP5 = assay: MIC test, anaerobes; format: cell-based
Description: as §1

C. botulinum CECT551 = assay: microbe, parasite or virus in culture; format: cell-based; settings: Clostridium botulinum, CECT551, 24 h, read-out: Minimal Inhibition Concentration (MIC) C. botulinum CECT551
C. difficile CECT531 = assay: microbe, parasite or virus in culture; format: cell-based, Clostridioides difficile; settings: Clostridioides difficile, CECT531, 24 h, read-out: Minimal Inhibition Concentration (MIC) C. difficile CECT531
C. perfringens CECT376 = assay: microbe, parasite or virus in culture; format: cell-based; settings: Clostridium perfringens, CECT376, 24 h, read-out: Minimal Inhibition Concentration (MIC) C. perfringens CECT376
C. tetani CECT4629 = assay: microbe, parasite or virus in culture; format: cell-based; settings: Clostridium tetani, CECT4629, 24 h, read-out: Minimal Inhibition Concentration (MIC) C. tetani CECT4629
[2] = system: panel of aerobic and anaerobic Gram-positive bacteria; assay: organism not typed; format: cell-based
E. coli LMG8224 = assay: Outer membrane permeabilization test (MIC with or without L-11 peptide); settings: for MIC: Escherichia coli, LMG8224, read-out: MIC (μM) L-11 + 0 μM; for MIC (μM) L-11 + 4 μM: presence of 4 μM L-11 outer-membrane-perturbing peptide
in vitro = settings: human
[3] = system: B. cereus ATCC 10987, E. faecalis V583, E. faecium LMG 16003, and S. aureus LMG 8224; format: cell-based; settings: 2-fold the MIC, 24 h, cMHB
B. cereus ATCC10987 [4] = assay: Effect of the compounds on actively growing bacteria (lysis, OD600); format: cell-based, Bacillus cereus; settings: 2×, 1×, and 0.5× the MIC added at mid exponential phase
B. cereus ATCC10987 [5] = assay: Membrane potential assay DiSC3(5); settings: 2×, 1×, and 0.5× the MIC
[6] = Clostridium beijerinckii, B504, 24 h; read-out: Minimal Inhibition Concentration (MIC) C. beijerinckii B504
[7] = 24 h; read-out: Minimal Inhibition Concentration (MIC) C. ihumii AP5

Row | Structure (SMILES) | MIC (B. cereus ATCC10987 [1]) | MIC (B. cereus ATCC14579) | MIC (E. faecalis LMG08222) | MIC (E. faecalis LMG16216) | MIC (E. faecalis V583) | MIC (E. faecium LMG11423) | MIC (E. faecium LMG16003) | MIC (S.aureus LMG8224) | MIC (S.aureus LMG10147) | MIC (S.aureus LMG15975) | MIC (C. beijerinckii B504; [6]) | MIC (C. ihumii AP5; [7]) | MIC (C. botulinum CECT551) | MIC (C. difficile CECT531) | MIC (C. perfringens CECT376) | MIC (C. tetani CECT4629) | MIC (E. coli LMG8224) | MIC (μM) L-11 + 4 μM (E. coli LMG8224) | IC50 (in vitro) | further results
1 | CCCCOc1ccc(/C=C/c2cc(OS(=O)(=O)O)cc(OS(=O)(=O)O)c2)cc1 [compound 14, 4′-butyl-3,5-disulfate resveratrol] | 128 µM (≈ 56.9 µg/mL) | 128 µM (≈ 56.9 µg/mL) | 32 µM (≈ 14.2 µg/mL) | 16 µM (≈ 7.11 µg/mL) | 64 µM (≈ 28.4 µg/mL) | 32 µM (≈ 14.2 µg/mL) | 64 µM (≈ 28.4 µg/mL) | 32 µM (≈ 14.2 µg/mL) | 32 µM (≈ 14.2 µg/mL) | 32 µM (≈ 14.2 µg/mL) | 16 µM (≈ 7.11 µg/mL) | 32 µM (≈ 14.2 µg/mL) | 21.3 ± 5.3 µM (≈ 9.47 µg/mL) | 32 µM (≈ 14.2 µg/mL) | 32 µM (≈ 14.2 µg/mL) | 16 µM (≈ 7.11 µg/mL) | – | – | – | antibacterial activity against the Gram-positive panel [2]: active against all Gram-positive bacterial strains examined
2 | COc1cc(/C=C/c2ccc(O[C@@H]3O[C@H](C(=O)O)[C@@H](O)[C@H](O)[C@H]3O)cc2)cc(OC)c1 [compound 30, PTER glucuronate] | 16 µM (≈ 6.92 µg/mL) | 13.3 ± 2.6 µM (≈ 5.75 µg/mL) | 64 µM (≈ 27.7 µg/mL) | 128 µM (≈ 55.4 µg/mL) | 128 µM (≈ 55.4 µg/mL) | – | – | 32 µM (≈ 13.8 µg/mL) | 32 µM (≈ 13.8 µg/mL) | 32 µM (≈ 13.8 µg/mL) | 10.7 ± 2.6 µM (≈ 4.63 µg/mL) | 8 µM (≈ 3.46 µg/mL) | 4 µM (≈ 1.73 µg/mL) | 13.3 ± 2.6 µM (≈ 5.75 µg/mL) | 5.3 ± 1.3 µM (≈ 2.29 µg/mL) | 4 µM (≈ 1.73 µg/mL) | > 128 µM | 16 ± 0 µM | – | MIC [2]: < 16 µM
3 | CC[Si](CC)(CC)Oc1ccc(/C=C/c2cc(O)cc(O)c2)cc1 [compound 31] | – | – | – | – | – | – | – | – | – | – | – | – | – | – | – | – | – | – | 32.1 ± 0.9 µM | –
4 | CC(C)[Si](Oc1ccc(/C=C/c2cc(O)cc(O)c2)cc1)(C(C)C)C(C)C [compound 33] | 32 µM (≈ 12.3 µg/mL) | 26.6 ± 5.3 µM (≈ 10.2 µg/mL) | 8 µM (≈ 3.08 µg/mL) | 8 µM (≈ 3.08 µg/mL) | 21.3 ± 5.3 µM (≈ 8.19 µg/mL) | 16 µM (≈ 6.15 µg/mL) | 5.3 ± 1.3 µM (≈ 2.04 µg/mL) | 128 µM (≈ 49.2 µg/mL) | 128 µM (≈ 49.2 µg/mL) | 128 µM (≈ 49.2 µg/mL) | 21.3 ± 5.3 µM (≈ 8.19 µg/mL) | 13.3 ± 2.6 µM (≈ 5.12 µg/mL) | 10.7 ± 2.6 µM (≈ 4.12 µg/mL) | 16 µM (≈ 6.15 µg/mL) | 26.6 ± 5.3 µM (≈ 10.2 µg/mL) | 6.7 ± 1.3 µM (≈ 2.58 µg/mL) | > 128 µM | 21.3 ± 5.3 µM | 2.8 ± 0.2 µM | bactericidal/bacteriostatic effect [3]: bactericidal; lysis of actively growing cells (B. cereus ATCC10987 [4]): most effective derivatives lysing the cells
5 | CC(C)[Si](Oc1cc(/C=C/c2ccc(OS(=O)(=O)O)cc2)cc(OS(=O)(=O)O)c1)(C(C)C)C(C)C [compound 35, 3,4′-Disulfate-5-triisopropylsilyl resveratrol] | 16 µM (≈ 8.72 µg/mL) | 21.3 ± 5.3 µM (≈ 11.6 µg/mL) | 13.3 ± 2.6 µM (≈ 7.24 µg/mL) | 8 µM (≈ 4.36 µg/mL) | 16 µM (≈ 8.72 µg/mL) | 16 µM (≈ 8.72 µg/mL) | 13.3 ± 2.6 µM (≈ 7.24 µg/mL) | 13.3 ± 2.6 µM (≈ 7.24 µg/mL) | 21.3 ± 5.3 µM (≈ 11.6 µg/mL) | 16 µM (≈ 8.72 µg/mL) | – | – | 64 µM (≈ 34.9 µg/mL) | 32 µM (≈ 17.4 µg/mL) | 64 µM (≈ 34.9 µg/mL) | 64 µM (≈ 34.9 µg/mL) | > 128 µM | 21.6 ± 5.3 µM | – | MIC (C. beijerinckii B504; Clostridium beijerinckii, B504, 24 h, read-out: Minimal Inhibition Concentration (MIC) C. beijerinckii B504): 64 µM (≈ 34.9 µg/mL); MIC (C. ihumii AP5; 24 h, read-out: Minimal Inhibition Concentration (MIC) C. ihumii AP5): 64 µM (≈ 34.9 µg/mL)
6 | CC(C)C[C@@H]1NC(=O)[C@H](CCCN)NC(=O)[C@H](C(C)C)NC(=O)[C@@H]2CCCN2C(=O)[C@@H](Cc2ccccc2)NC(=O)[C@H](CC(C)C)NC(=O)[C@H](CCCN)NC(=O)[C@H](C(C)C)NC(=O)[C@@H]2CCCN2C(=O)[C@@H](Cc2ccccc2)NC1=O [gramicidin S, Gramicidin S] (cyclo(V[Orn]L[dF]PV[Orn]L[dF]P)) | – | – | – | – | – | – | – | – | – | – | – | – | – | – | – | – | – | – | – | membrane potential change (DiSC3(5)) (B. cereus ATCC10987 [5]): induced a strong membrane depolarization
